# Results: PMC8156816, “Antibacterial Activities of Homemade Matrices Miming Essential Oils Compared to Commercial Ones” (Antibiotics, 2021)
# Like-named read-outs stand apart in the source and are kept apart here.
# Tests used:
# [1] = test system: Staphylococcus aureus LMG 15975 (MRSA); experiment: Direct antibacterial activity, broth microdilution MIC; type: cell-based; conditions: read-out: Direct Activity MRSA MIC
# Description: (§1) Two types of antibacterial assays were employed as previously described. All the samples, essential oils, mixtures of essential oil types, and individual compounds were evaluated alone (direct activity) or in association with an antibiotic (indirect activity) at a sub-MIC concentration (non-active concentration). The tested strains were the Gram-positive Staphylococcus aureus LMG 15,975 (methicillin-resistant S. aureus, abbreviated as MRSA) and S. aureus LMG 21,674 (fusidic-acid-resistant S. aureus, abbreviated as FUSR). The chosen antibiotics were penicillin V and fusidic acid. The broth microdilution method in 96-well plates was used to determine the minimum inhibitory concentration (MIC). For the direct activity, samples were serially diluted to achieve a concentration ranging from 1 mg/mL to 2 μg/mL. For the indirect activity, the antibiotic was first serially diluted (from 64 to 7.103 μg/mL) and the samples were subsequently added to the wells at the defined sub-MIC concentration. These ranges were chosen because above them the sample is considered as non-active. For both assays, the inoculum was prepared from a suspension of 24-hour colonies to obtain a turbidity of 0.5 McFarland and added to the wells to achieve a final concentration of 5 × 10^5 CFU/mL. Plates were then incubated at 37 °C overnight and MTT (0.8 mg/mL) was used to determine the MIC by naked eye. A growth (Mueller–Hinton broth medium with inoculum) and a non-growth (only MHB) control were carried out. In addition, antibiotics were also always tested alone as positive controls.
# [2] = test system: Staphylococcus aureus LMG 21674 (FUSR); experiment: as above; type: cell-based; conditions: for MIC: Staphylococcus aureus
# Description: as §1
# [3] = test system: Staphylococcus aureus LMG 15975 (MRSA); experiment: Indirect antibacterial activity in association with penicillin V; type: cell-based; conditions: sample at sub-MIC, versus penicillin V alone (4 μg/mL)
# Text: as §1, with “All the samples, essential oils, mixtures of essential oil types, and individual compounds were evaluated alone (direct activity) or in association with an antibiotic (indirect activity) at a sub-MIC concentration (non-active concentration).” left out
# (§2) The indirect activity presented in this study made use of a different method to test synergistic effects between two compounds. The difference with the traditional checkerboard method was that compound A (antibiotic) was serially diluted and compound B (essential oil/pure metabolite or homemade mixture) was added at a fix sub-MIC concentration, determined under the cytotoxic activity threshold. […] An indirect activity is observed when the MIC of the association is lower than the MIC of the antibiotic alone.
# [4] = test system: Staphylococcus aureus LMG 21674 (FUSR); experiment: as above; type: cell-based; conditions: sample at sub-MIC, versus penicillin V alone (16 μg/mL)
# Text: as §1, with “All the samples, essential oils, mixtures of essential oil types, and individual compounds were evaluated alone (direct activity) or in association with an antibiotic (indirect activity) at a sub-MIC concentration (non-active concentration).” left out
# as §2
# [5] = test system: human lung cells; conditions: cited from earlier work
# [6] = Cytotoxic activity, colorimetric MTT assay on keratinocytes; type: cell-based; conditions: human, HaCaT keratinocyte cells, interpretation proposed by Döll-Boscardin et al.
# Description: The effect of each essential oil on the global growth of the cell line was investigated through a colorimetric MTT assay as previously described. Briefly, human keratinocytes cells (HaCaT) were grown in RPMI supplemented with 10% fetal bovine serum and 0.5% penicillin-streptomycin and seeded at a density of 10 000 cells/mL in 96-well plates. […] The contact time of incubation was 72 h. Finally, after 3 to 5 hours of incubation with the MTT (0.5 mg/mL), the plates were centrifuged at 1200 rpm for 5 min, the supernatant was discarded, and the formazan crystals formed dissolved in DMSO. A spectrophotometer (680XR, BioRad, Hercules, CA, USA) was used to measure the absorbance (at 570 and 630 nm), which can be directly correlated to the number of viable cells (cell viability (% RC) = (absorbance of treated cells/absorbance of control) × 100).
# [7] = test system: MRSA strains; conditions: same strain and other MRSA strains; cited from earlier work
# [8] = test system: S. aureus MTCC 7405; set-up: method as in Dahham et al. (2015); conditions: ref Dahham et al. (2015); cited from earlier work
# [9] = test system: S. aureus ATCC 25923 (MSSA); set-up: method as in PMID 16619365; conditions: cited from earlier work
# [10] = test system: MSSA (ATCC 29,213); set-up: method as in PMID 32629822; conditions: cited from earlier work
# [11] = test system: green monkey kidney, mouse fibroblast, human retinal ganglion, and human colon fibroblast cell lines; conditions: cited from earlier work
# [12] = sample alone, broth microdilution, median
# [13] = LMG21674, sample alone, broth microdilution, median, read-out: Direct Activity FUSR MIC
SMILES,decrease of the MIC of penicillin V on MRSA [3] [fold],"MIC [1, 12] [µg/mL]","MIC [2, 13] [µg/mL]",further results
Cc1ccc(C(C)C)cc1O [Carvacrol],4,,,"MIC [1]: 250 µg/mL; MIC ([2]; LMG21674, read-out: Direct Activity FUSR MIC): 62.5 µg/mL; decrease of the MIC of penicillin V on FUSR S. aureus [4]: 4 fold; cytotoxicity [5]: low cytotoxicity"
C=CC(C)(O)CCC=C(C)C (stereo not shown) [Linalool],,> 1000,> 1000,IC50 at 72 h [6]: < 31.3 µg/mL
"CC1(C)S[C@@H]2[C@H](NC(=O)COc3ccccc3)C(=O)N2[C@H]1C(=O)O [PEN V, penicillin V]",,4,16,
Cc1ccc(C(C)C)c(O)c1 [Thymol],4,250,125,MIC [7]: around 600 μg/mL; cytotoxicity [5]: low cytotoxicity
CC(=O)O[C@H]1C[C@@]2(C)[C@@H](C[C@@H](O)[C@H]3[C@@]4(C)CC[C@@H](O)[C@@H](C)[C@@H]4CC[C@@]32C)/C1=C(\CCC=C(C)C)C(=O)O [fusidic acid],,,256,
Cc1ccc(C(C)C)cc1 [p-cymene],,> 1000,> 1000,"Direct Activity FUSR MIC [2, 12]: No direct activity"
C=C1CC/C=C(\C)CC[C@@H]2[C@@H]1CC2(C)C [β-caryophyllene],4,> 1000,31.3,decrease of the MIC of penicillin V on FUSR S. aureus [4]: 267 fold; MIC compared with kanamycin [8]: a better MIC on S. aureus MTCC 7405 than the kanamycin; MIC [9]: 5.1 µg/mL; MIC [10]: 313 µg/mL; cytotoxic effect [11]: low cytotoxic effect
C=CC(=C)CCC=C(C)C [β-myrcene],,> 1000,> 1000,
C=C1CCC2CC1C2(C)C (stereo not drawn) [β-pinene],,> 1000,250,
CC1=CCC(C(C)C)=CC1 [γ-terpinene],,> 1000,> 1000,"Direct Activity FUSR MIC [2, 12]: No direct activity"
